Structures can show the parent of a compound that is named as a salt.
Experiments:
REC1_19 (TGTT 393) mRNA = assay: quantified RT-PCR, Rec1_19; type: in vivo, rabbit; details: for Relative Abundance Rec1_19, 100 pg F: hypercholesterolemic plus lercanidipine racemate, eight weeks, H2 (normocholesterolemic)=1.0
Method: (§1) Nineteen of the isolated DST clones were further validated using RT-PCR analyses; the data are presented in FIGS. 6-24 and in Tables 5-23, below. For each DST examined, the optimal annealing temperature and reagent conditions were determined for the corresponding set of primers (see Table 25) based on results from a preliminary experiment. In eight separate reactions, each set of primers was assayed to find the optimal conditions by adjusting the following four parameters: primer concentration, dNTP concentration, MgCl2 concentration, and number of Taq polymerase units. Once optimal conditions were determined, each DST was run in duplicate multiple simultaneous reactions which usually included at least four dilutions of template (cDNA library), plus control reactions lacking template, and six sequential data points for numbers of cycles.
(§2) Reactions were performed using “Hot Start” PCR with the Clontech TaqStart antibody system (Cat. #5400-1). Each reaction contained 1 ml of the cDNA library dilution as template, determined amounts of AmpliTaq DNA polymerase (cat. #N808-0156), MgCl2, dNTPs (GibcoBRL cat. #10297-018), primer, and Clontech TaqStart Antibody in a 20 ml final reaction volume using 10×Taq buffer II (without MgCl2). Typically, a master mix containing all components except the template was prepared and aliquoted. Various templates were then added to these master mix samples and 20 ml volumes were subsequently dispensed into individual reaction tubes. At various times during the PCR run, tubes were removed sequentially on a predetermined schedule in order to quantitate expression of the target DST over a “window” of cycle times. After amplification, the samples were quantified via fluorimetry.
(§3) PCR was performed at annealing temperatures that were five degrees above the average melting temperature of each primer pair. For primers greater than 10 bases (in a 0.05M salt solution), melting temperature was calculated using the following formula: Tm=59.9+41[% GC]−[675/Primer Length], where %GC is the decimal value. Following determination of the average melting temperature of the primer pair, the annealing temperature was determined by adding five degrees to the average melting temperature. PCR was performed using the following program: 1) 95 degrees Celsius, 3 minutes; 2) 95 degrees Celsius, 30 seconds; 3) TM+5 degrees Celsius, 30 seconds; 4) 72 degrees Celsius, for a time dependent on target length at 16 bp/second; 5) repeat steps 2-4 33 more cycles; 6) 72 degrees Celsius, 3 minutes; 7) 14 degrees Celsius, forever.
(§4) Following temperature cycling, 2 ml of the PCR reaction was added to 140 ml of a 1:280 dilution of PicoGreen (Molecular Probes cat. #P-11495 (10×100 ml)) in TE pH 7.5 in a 96-well Costar UV microtiter plate (Fisher cat. #07-200623). The samples were mixed gently for 1.5 minutes and allowed to equilibrate at room temperature in the dark for 15 minutes. The concentration of the PCR products was quantified by fluorimetry using a PerSeptive Biosystems CytoFluor series 4000 multi-well plate reader.
(§5) Background fluorescence was determined by using duplicate control samples that were cycled with all reaction components except the template. The mean value from these duplicate background control samples was subtracted from the corresponding experimental values prior to analyzing results. The sensitivity of the PicoGreen dsDNA assay is reported to be 250 pg/ml (50 pg dsDNA in a […] assay volume) using a fluorescence microplate reader such as was used in these measurements. […]

Rec1_21 (TTCC 165) mRNA = assay: quantified RT-PCR, Rec1_21; type: in vivo, rabbit; details: for Relative Abundance Rec1_21, 20 pg F: hypercholesterolemic plus lercanidipine racemate, eight weeks, H2 (normocholesterolemic)=1.0
Method: as §1, §2, §3, §4
Background fluorescence was determined by using duplicate control samples that were cycled with all reaction components except the template. The mean value from these duplicate background control samples was subtracted from the corresponding experimental values prior to analyzing results. The sensitivity of the PicoGreen dsDNA assay is reported to be 250 pg/ml (50 pg dsDNA in a […] assay volume) using a fluorescence microplate reader such as was used in these measurements.
FIG. 20 is a graphical representation of the results of RT-PCR using 20 pg of clone REC1—21 template, in which the amount of PCR product (measured in arbitrary fluorescence units) is plotted against number of cycles, where polyA enriched mRNA was extracted from aortas or rabbits that were normocholesterolemic (filled diamonds, “H2”) and hypercholestrolemic plus lercanidipine racemate, eight weeks (filled squares, “F”).

[1] = system: REC1_2 (MspI AATC 108) mRNA; assay: quantified RT-PCR, Rec1_2; type: in vivo, rabbit; details: for Relative Abundance Rec1_2, 500 pg F: hypercholesterolemic plus lercanidipine racemate, eight weeks, H2 (normocholesterolemic)=1.0
Method: as §1, §2, §3, §4, §5

[2] = in vivo studies (Soma 1998); cited from earlier work
LDL = details: Soma et al. 1998; cited from earlier work
[3] = system: REC1_18 (MspI TGGT 241) mRNA; assay: quantified RT-PCR, Rec1_18; type: in vivo, rabbit; details: for Relative Abundance Rec1_18, 20 pg F: hypercholesterolemic plus lercanidipine racemate, eight weeks, H2 (normocholesterolemic)=1.0
Method: as §1, §2, §3, §4, §5

[4] = system: REC1_13 (MspI GCCC 216) mRNA; assay: quantified RT-PCR, Rec1_13; type: in vivo, rabbit; details: for Relative Abundance Rec1_13, 100 pg F: hypercholesterolemic plus lercanidipine racemate, eight weeks, H2 (normocholesterolemic)=1.0
Method: as §1, §2, §3, §4, §5

[5] = in vivo studies (Soma 1998); cited from earlier work; remark: listed apart in the source
Rec1_7 (CACA 282) mRNA = assay: quantified RT-PCR, Rec1_7; type: in vivo, rabbit; details: for Relative Abundance Rec1_7, 100 pg F: hypercholesterolemic plus lercanidipine racemate, eight weeks, H2 (normocholesterolemic)=1.0
Method: as §1, §2, §3, §4, §5

[6] = hypercholesterolemic animals receiving lercanidipine
[7] = hypercholesterolemic animals receiving lercanidipine racemate

SMILES: COC(=O)C1=C(C)NC(C)=C(C(=O)OC(C)(C)CN(C)CCC(c2ccccc2)c2ccccc2)C1c1cccc([N+](=O)[O-])c1 (racemic) [lercanidipine, lercanidipine hydrochloride]
- Relative Abundance Rec1_19, 100 pg F (REC1_19 (TGTT 393) mRNA; cycle 24): 0.0
- Relative Abundance Rec1_19, 100 pg F (REC1_19 (TGTT 393) mRNA; cycle 26): 0.0
- Relative Abundance Rec1_19, 100 pg F (REC1_19 (TGTT 393) mRNA; cycle 28): 0.0
- Relative Abundance Rec1_19, 100 pg F (REC1_19 (TGTT 393) mRNA; cycle 30): 0.1
- Relative Abundance Rec1_19, 100 pg F (REC1_19 (TGTT 393) mRNA; cycle 32): 0.3
- Relative Abundance Rec1_19, 100 pg F (REC1_19 (TGTT 393) mRNA; cycle 34): 0.5
- expression of Rec1_19 at 8 weeks (RT-PCR study), in words (REC1_19 (TGTT 393) mRNA; [6]): decreased
- Relative Abundance Rec1_21, 20 pg F (Rec1_21 (TTCC 165) mRNA; cycle 24): 0.0
- Relative Abundance Rec1_21, 20 pg F (Rec1_21 (TTCC 165) mRNA; cycle 26): 0.0
- Relative Abundance Rec1_21, 20 pg F (Rec1_21 (TTCC 165) mRNA; cycle 28): 0.0
- Relative Abundance Rec1_21, 20 pg F (Rec1_21 (TTCC 165) mRNA; cycle 30): 0.1
- Relative Abundance Rec1_21, 20 pg F (Rec1_21 (TTCC 165) mRNA; cycle 32): 0.1
- Relative Abundance Rec1_21, 20 pg F (Rec1_21 (TTCC 165) mRNA; cycle 34): 0.3
- expression of Rec1_21 at 8 weeks (RT-PCR study), in words (Rec1_21 (TTCC 165) mRNA; [6]): substantially decreased
- Relative Abundance Rec1_2, 500 pg F ([1]; cycle 22): 2.7
- Relative Abundance Rec1_2, 500 pg F ([1]; cycle 24): 0.6
- Relative Abundance Rec1_2, 500 pg F ([1]; cycle 26): 5.0
- Relative Abundance Rec1_2, 500 pg F ([1]; cycle 28): 6.6
- Relative Abundance Rec1_2, 500 pg F ([1]; cycle 30): 2.5
- Relative Abundance Rec1_2, 500 pg F ([1]; cycle 32): 1.6
- expression of Rec1_2 at 8 weeks (RT-PCR study), in words [1, 7]: elevated
- aortic fatty lesion deposition [2]: inhibit
- antioxidant for LDL in endothelial cell-mediated oxidation (LDL): act as an antioxidant
- Relative Abundance Rec1_18, 20 pg F ([3]; cycle 24): 169.0
- Relative Abundance Rec1_18, 20 pg F ([3]; cycle 26): 5.8
- Relative Abundance Rec1_18, 20 pg F ([3]; cycle 28): 1.0
- Relative Abundance Rec1_18, 20 pg F ([3]; cycle 30): 1.0
- Relative Abundance Rec1_18, 20 pg F ([3]; cycle 32): 1.4
- Relative Abundance Rec1_18, 20 pg F ([3]; cycle 34): 1.1
- expression of Rec1_18 at 8 weeks (RT-PCR study), in words [3, 7]: somewhat elevated
- Relative Abundance Rec1_13, 100 pg F ([4]; cycle 20): 1.4
- Relative Abundance Rec1_13, 100 pg F ([4]; cycle 22): 33.7
- Relative Abundance Rec1_13, 100 pg F ([4]; cycle 24): 3.0
- Relative Abundance Rec1_13, 100 pg F ([4]; cycle 26): 1.9
- Relative Abundance Rec1_13, 100 pg F ([4]; cycle 28): 1.2
- Relative Abundance Rec1_13, 100 pg F ([4]; cycle 30): 1.3
- expression of Rec1_13 at 8 weeks (RT-PCR study), in words [4, 7]: elevated
- carotid intimal hyperplasia [5]: inhibit
- Relative Abundance Rec1_7, 100 pg F (Rec1_7 (CACA 282) mRNA; cycle 24): 0.00
- Relative Abundance Rec1_7, 100 pg F (Rec1_7 (CACA 282) mRNA; cycle 26): 0.00
- Relative Abundance Rec1_7, 100 pg F (Rec1_7 (CACA 282) mRNA; cycle 28): 0.06
- Relative Abundance Rec1_7, 100 pg F (Rec1_7 (CACA 282) mRNA; cycle 30): 0.10
- Relative Abundance Rec1_7, 100 pg F (Rec1_7 (CACA 282) mRNA; cycle 32): 0.3
- Relative Abundance Rec1_7, 100 pg F (Rec1_7 (CACA 282) mRNA; cycle 34): 0.5
- expression of Rec1_7 at 8 weeks (RT-PCR study), in words (Rec1_7 (CACA 282) mRNA; [7]): down-regulated
